Reference: ChEMBL document CHEMBL6083204, “Synthesis of a celastrol derivative as a cancer stem cell inhibitor through regulation of the STAT3 pathway for treatment of ovarian cancer” (RSC Med Chem, 2024)
The source made the active and inactive calls. No cut-off for these calls is given here.

Legend:
SK-OV-3 [1] = assay: Induction of apoptosis in human SK-OV-3 cells assessed as viable cells at 0.8 uM incubated for 24 hrs by Annexin V-FITC/7-AAD staining based flow cytometry (reference value: 94.6 %); type: functional; settings: read-out: Activity
A2780 [2] = assay: Inhibition of cell migration in human A2780 cells assessed as reduction in number of migrated cells at 0.1 to 0.4 uM incubated for 24 hrs by crystal violet staining based transwell assay; type: functional; settings: dose 0.1-0.4 µM
SK-OV-3 [3] = assay: Induction of cell cycle arrest in human SK-OV-3 cells assessed as accumulation of cells at G0/G1 phase at 0.2 uM incubated for 24 hrs by BrdU staining based flow cytometry (reference value: 59.8 %); type: functional
SK-OV-3 [4] = assay: Induction of cell cycle arrest in human SK-OV-3 cells assessed as reduction of CDK4 expression at 0.2 uM incubated for 24 hrs by flow cytometry (reference value: 66.8 %); type: functional; parameters: scale not given: the % may be the effect or the level left
SK-OV-3 [5] = assay: Induction of cell cycle arrest in human SK-OV-3 cells assessed as accumulation of cells at G0/G1 phase at 0.8 uM incubated for 24 hrs by BrdU staining based flow cytometry (reference value: 59.8 %); type: functional
A2780 [6] = assay: Antiproliferative activity against human A2780 cells assessed as decrease in CD44 positive CD24 negative cells expression at 0.2 uM incubated for 24 hrs by FITC staining based flow cytometry (reference value: 28.13 %); type: functional; parameters: scale not given: the % may be the effect or the level left
[7] = target: Tyrosine-protein kinase JAK1 (Homo sapiens) (UniProt P23458); assay: Inhibition of JAK1 in human SK-OV-3 cells assessed as downregulation of JAK1 expression at 0.1 to 0.4 uM incubated for 24 hrs by Western blotting analysis; type: cell-based; settings: dose 0.1-0.4 µM
Mitochondrial membrane = assay: Induction of mitochondrial membrane potential loss in human SK-OV-3 cells at 0.1 uM incubated for 24 hrs by JC-1 staining based flow cytometry (reference value: 73.6 %)
A2780 [8] = assay: Induction of apoptosis in human A2780 cells assessed as early apoptotic cells at 0.4 uM incubated for 24 hrs by Annexin V-FITC/7-AAD staining based flow cytometry (reference value: 1.9 %); type: functional
SK-OV-3 [9] = assay: Antitumor activity against human SK-OV-3 cells xenografted in BALB/c mouse assessed as reduction in tumor volume at 5 mg/kg,ip administrated for 21 consecutive days relative to control; type: functional; parameters: scale not given: the % may be the effect or the level left

Sequence of Tyrosine-protein kinase JAK1 (Homo sapiens) (P23458 whole entry): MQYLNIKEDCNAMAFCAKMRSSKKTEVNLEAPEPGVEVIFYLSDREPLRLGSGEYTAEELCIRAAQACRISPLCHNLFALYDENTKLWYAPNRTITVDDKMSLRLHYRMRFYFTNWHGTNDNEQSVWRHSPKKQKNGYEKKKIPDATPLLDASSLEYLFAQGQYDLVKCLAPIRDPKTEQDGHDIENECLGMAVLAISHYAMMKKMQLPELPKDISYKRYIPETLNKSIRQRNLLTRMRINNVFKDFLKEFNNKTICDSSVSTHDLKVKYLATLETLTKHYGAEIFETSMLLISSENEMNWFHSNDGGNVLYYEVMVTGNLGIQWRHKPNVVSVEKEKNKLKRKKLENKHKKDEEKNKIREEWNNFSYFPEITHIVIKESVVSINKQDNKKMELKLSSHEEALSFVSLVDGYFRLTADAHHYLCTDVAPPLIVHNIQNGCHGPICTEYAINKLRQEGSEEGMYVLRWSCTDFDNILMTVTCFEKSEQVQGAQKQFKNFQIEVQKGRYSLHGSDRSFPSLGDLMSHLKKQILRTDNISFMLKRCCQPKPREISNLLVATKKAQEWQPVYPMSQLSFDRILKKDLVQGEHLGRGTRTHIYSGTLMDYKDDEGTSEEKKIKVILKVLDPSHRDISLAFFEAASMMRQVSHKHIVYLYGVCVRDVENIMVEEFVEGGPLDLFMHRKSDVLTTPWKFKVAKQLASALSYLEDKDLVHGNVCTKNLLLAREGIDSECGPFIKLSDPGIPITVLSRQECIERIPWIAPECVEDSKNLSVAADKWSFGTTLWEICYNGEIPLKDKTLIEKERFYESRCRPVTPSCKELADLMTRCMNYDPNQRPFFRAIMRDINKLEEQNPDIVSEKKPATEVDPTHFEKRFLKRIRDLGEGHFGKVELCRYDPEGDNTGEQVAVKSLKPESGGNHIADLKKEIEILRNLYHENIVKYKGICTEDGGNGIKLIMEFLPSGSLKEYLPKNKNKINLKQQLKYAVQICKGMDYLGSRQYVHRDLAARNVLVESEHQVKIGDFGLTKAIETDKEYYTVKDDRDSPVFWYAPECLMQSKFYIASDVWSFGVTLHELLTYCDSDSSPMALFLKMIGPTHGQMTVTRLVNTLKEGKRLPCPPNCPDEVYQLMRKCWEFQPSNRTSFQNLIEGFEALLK

Question: `CC1=C(O)C(=O)C=C2C1=CC=C1[C@@]2(C)CC[C@@]2(C)[C@@H]3C[C@](C)(C(=O)N4CCNCC4)CC[C@]3(C)CC[C@]12C` was tested. Which viability at 0.8 µM (SK-OV-3 [1]) did it give?
Answer: The viability at 0.8 µM was 48%.

Question: And the inhibition (A2780 [2])?
Answer: Its inhibition is “Active”.

Question: What about the Activity (SK-OV-3 [3]) of the same molecule?
Answer: Its Activity is 59.2%.

Question: And the Activity (SK-OV-3 [4])?
Answer: Its Activity is 67%.

Question: What about the Activity (SK-OV-3 [5]) of the same molecule?
Answer: The Activity was 47.7%.

Question: And the Activity (A2780 [6])?
Answer: The Activity was 17.97%.

Question: What about the inhibition [7] of the same molecule?
Answer: Its inhibition is “Active”.

Question: And the Activity (Mitochondrial membrane)?
Answer: Its Activity is 70.7%.

Question: What about the Activity (A2780 [8]) of the same molecule?
Answer: Its Activity is 7.4%.

Question: And the Activity (SK-OV-3 [9])?
Answer: Its Activity is 74.58%.
